Consider 1 molecule from PMC4777574, “Pharmacological Inhibition of Monoacylglycerol O-Acyltransferase 2 Improves Hyperlipidemia, Obesity, and Diabetes by Change in Intestinal Fat Utilization” (PLoS ONE, 2016).

Test [1] deals with T1, Monoacylglycerol O-acyltransferase 2 (MGAT2) (Mus musculus, UniProt Q80W94).
T1 construct: gene Mogat2
The experiment in a line: MGAT2 enzyme inhibition IC50 (assay details not given); anorectic effect lost in MGAT2 KO mice. It is filed as biochemical.

Test [2] deals with T2, Monoacylglycerol O-acyltransferase 2 (MGAT2) (Homo sapiens, UniProt Q3SYC2).
T2 construct: gene MOGAT2
As to the kind of experiment: MGAT2 enzyme inhibition IC50 (assay details not given). It is filed as biochemical.

T2 sequence (Q3SYC2 whole entry): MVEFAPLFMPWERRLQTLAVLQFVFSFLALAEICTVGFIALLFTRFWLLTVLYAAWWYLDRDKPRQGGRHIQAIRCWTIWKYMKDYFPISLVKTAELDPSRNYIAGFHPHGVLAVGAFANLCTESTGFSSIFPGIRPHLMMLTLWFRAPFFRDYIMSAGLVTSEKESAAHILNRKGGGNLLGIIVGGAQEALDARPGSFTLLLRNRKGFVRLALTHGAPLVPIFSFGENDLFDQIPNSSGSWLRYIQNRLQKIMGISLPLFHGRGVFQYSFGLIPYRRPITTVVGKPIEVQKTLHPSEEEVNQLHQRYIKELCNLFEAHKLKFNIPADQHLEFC
T1 sequence (Q80W94 whole entry): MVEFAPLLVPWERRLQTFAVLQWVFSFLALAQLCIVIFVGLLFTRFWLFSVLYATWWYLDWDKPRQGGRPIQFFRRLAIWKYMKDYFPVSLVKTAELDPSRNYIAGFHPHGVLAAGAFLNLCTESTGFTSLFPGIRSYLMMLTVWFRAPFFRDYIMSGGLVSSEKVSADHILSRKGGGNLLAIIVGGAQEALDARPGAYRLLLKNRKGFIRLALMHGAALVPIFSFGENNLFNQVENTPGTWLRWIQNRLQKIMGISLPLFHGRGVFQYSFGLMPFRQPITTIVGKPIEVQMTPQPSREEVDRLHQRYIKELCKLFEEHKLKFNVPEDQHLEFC

As a reminder, the IC50 is the concentration needed to halve the response being measured. A low value points to inhibition by little substance. Regarding `Cn1nc(C(F)(F)F)cc1-c1cnc(N2CCc3cc(S(=O)(=O)Nc4c(F)cc(Cl)cc4F)cc(N4CCCC4=O)c32)nc1` [compA, compound A], the IC50 in test [1] came to 2.4 nM; in test [2], 7.8 nM.
